The source of these data is ChEMBL document CHEMBL5325401, “Computer-aided identification, synthesis, and biological evaluation of DNA polymerase η inhibitors for the treatment of cancer” (Eur J Med Chem, 2023).

Values after ≈ are worked out from the molar mass of the structure shown.

Data set [1] addresses T1, DNA polymerase eta (Homo sapiens, UniProt Q9Y253).
T1 sequence (Q9Y253 whole entry): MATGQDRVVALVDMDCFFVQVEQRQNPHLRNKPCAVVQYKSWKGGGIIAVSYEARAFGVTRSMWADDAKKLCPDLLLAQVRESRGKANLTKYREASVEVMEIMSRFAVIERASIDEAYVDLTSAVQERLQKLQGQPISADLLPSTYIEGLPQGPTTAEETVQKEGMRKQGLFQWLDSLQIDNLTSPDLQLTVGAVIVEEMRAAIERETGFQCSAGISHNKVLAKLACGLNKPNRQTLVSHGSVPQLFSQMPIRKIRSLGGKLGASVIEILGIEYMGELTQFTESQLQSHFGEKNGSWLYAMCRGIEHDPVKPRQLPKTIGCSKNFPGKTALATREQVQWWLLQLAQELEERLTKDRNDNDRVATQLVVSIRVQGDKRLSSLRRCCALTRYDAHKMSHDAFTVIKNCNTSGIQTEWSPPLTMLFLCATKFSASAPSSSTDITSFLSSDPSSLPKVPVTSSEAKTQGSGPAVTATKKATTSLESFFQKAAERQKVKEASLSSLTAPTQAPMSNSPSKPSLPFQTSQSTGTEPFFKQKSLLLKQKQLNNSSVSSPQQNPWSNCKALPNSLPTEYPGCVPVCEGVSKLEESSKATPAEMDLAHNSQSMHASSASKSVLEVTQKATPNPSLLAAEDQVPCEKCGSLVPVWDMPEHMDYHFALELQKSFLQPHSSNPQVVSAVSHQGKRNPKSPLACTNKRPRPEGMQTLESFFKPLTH
The experiment in a line: Inhibition of C-terminal 6xHis-tagged human DNA polymerase eta (1 to 511 residues) expressed in Escherichia coli BL21 DE3 using 5'-IRD700-GCAGGTCGACTCCAAAG-3' primer/ 5'-TCGGTACCGGGTTAGCCTTTGGAGTCGACCTGC-3' template as DNA substrate incubated for 60 mins in presence of Mg2+ by bromophenol blue staining based assay.

The target in data set [2] is T2, DNA polymerase eta (Homo sapiens) (UniProt Q9Y253).
T2 sequence (whole entry): T1 sequence (Q9Y253 whole entry)
The data set can be described thus: Inhibition of C-terminal 6xHis-tagged human DNA polymerase eta (1 to 511 residues) expressed in Escherichia coli BL21 DE3 using 5'-IRD700-GCAGGTCGACTCCAAAG-3' primer/ 5'-TCGGTACCGGGTTAGCCTTTGGAGTCGACCTGC-3' template as DNA substrate at 1 uM incubated for 60 mins in presence of Mg2+ by bromophenol blue staining based assay relative to control.

Data set [3] deals with T2, DNA polymerase eta (Homo sapiens). The experiment in a line: Inhibition of C-terminal 6xHis-tagged human DNA polymerase eta (1 to 511 residues) expressed in Escherichia coli BL21 DE3 using 5'-IRD700-GCAGGTCGACTCCAAAG-3' primer/ 5'-TCGGTACCGGGTTAGCCTTTGGAGTCGACCTGC-3' template as DNA substrate at 100 uM incubated for 60 mins in presence of Mg2+ by bromophenol blue staining based assay relative to control.

Data set [4] can be described thus: Inhibition of DNA polymerase (unknown origin). Details: species or system Homo sapiens.
Data set [5] in a line: Metabolic stability in mouse plasma assessed as half life at 2 uM incubated upto 120 mins by UPLC/MS analysis. The format is ADME, cell-free.
Data set [6] is described as follows: Kinetic solubility of compound in neutral buffer at pH 7.4 at 250 uM measured after 24 hrs by UPLC/MS analysis. As to conditions: read-out: Kinetic_solubility. In kind it is physicochemical.
A short description of data set [7]: Metabolic stability in mouse liver microsome assessed as half life at 4.6 uM incubated upto 60 mins by LC/MS-MS analysis. In kind it is ADME. The following applies: liver microsomes. Background: Microsomes from liver hold many membrane-bound enzymes, among them those of drug oxidation.
In data set [8] the target is T1, DNA polymerase eta. The data set can be described thus: Inhibition of 6xHis-tagged human DNA polymerase eta (1 to 437 residues) expressed in Escherichia coli BL21 DE3 assessed as displacement of reporter strand using 5'-TTT TTT TTG C-TAMRA-3' reporter/5'-TCA CCC TCG TAC GAC TCT T-3' primer/5'-BHQ2-GCAAAAAAAAAAGAGTCGTACGAGGGTGA-3' template of 1:1.5:1.5 as DNA substrate preincubated for 5 to 10 mins followed by substrate addition measured immediately in presence of dTTP/MgCl2 by fluorescence based assay.

The target in data set [9] is T1, DNA polymerase eta. The data set can be described thus: Inhibition of human DNA polymerase eta (1 to 437 residues) using 5'-TTT TTT TTG C-TAMRA-3' reporter/5'-(FAM-TTT)-GGGGGAAGGATTC-3' primer/5'-TCACGGAATCCTTCCCCC-3' template as DNA substrate preincubated for 5 to 10 mins followed by DNA substrate addition measured immediately in presence of dTTP/MgCl2 by fluorescence based assay.

As to `COc1cc(O)c2c(=O)cc(-c3ccc4c(c3)OC(F)(F)O4)oc2c1`, the IC50 in data set [1] is > 100 µM. In the case of `Cc1cc(=O)c2c(CC(=O)CC(O)CC(=O)O)cccc2o1` (racemic), the inhibition in [2] is 22.8%; in data set [3], 100%. For `COc1cccc2oc(-c3ccc(O)cc3C)cc(=O)c12`, the IC50 in data set [1] is 98.3 µM.

As for `O=C(O)c1cc(-c2cc(=O)c3c(O)cc(O)cc3o2)ccc1O`, in data set [1], the IC50 worked out at 7.7 µM. As for `O=c1cc(-c2ccc(O)c(O)c2)oc2ccccc12`, the IC50 in data set [1] was determined as 30.5 µM. On the same count and under the same terms, under `O=c1cc(-c2ccc(O)c(O)c2)oc2cc(O)ccc12` stands 27 µM. For the compound `O=C(O)C1=CC(=C(c2ccc(O)c(C(=O)O)c2)c2ccc(O)c(C(=O)O)c2)C=CC1=O` [AURINTRICARBOXYLIC ACID], in data set [4], the IC50 was determined as 0.4 µM.

Take `CCCCc1c(-c2ccc(O)c(O)c2)oc2cc(O)cc(O)c2c1=O`: the IC50 in data set [1] was > 100 µM.

Consider `O=C(O)CCc1cc(=O)c2c(O)cc(O)cc2o1`, for which the IC50 in data set [1] was > 100 µM. With `O=c1cc(-c2ccccc2)oc2cc(O)cc(O)c12` [CHRYSIN], the IC50 in data set [1] stood at 14.8 µM. As for `O=c1cc(-c2ccc(O)c(O)c2)oc2cccc(O)c12`, the half-life at 2 µM in [5] was > 2 h. The half-inhibitory concentration (IC50) in [1] is 8.7 µM. Also, the solubility kinetic at 24 h, 250 µM in data set [6] worked out at 9 µM (≈ 2.43 µg/mL). The half-life at 4.6 µM in data set [7] was > 1 h. For `O=c1c(O)c(-c2ccc(O)c(O)c2)oc2cc(O)cc(O)c12` [QUERCETIN], the half-life at 2 µM in data set [5] came to 0.117 h. The IC50 in data set [1] turned out to be 15.8 µM. Besides, in data set [6], the solubility kinetic at 24 h, 250 µM was 16 µM (≈ 4.84 µg/mL). Besides, the half-life at 4.6 µM in data set [7] is > 1 h.

Regarding `O=c1cc(-c2ccccc2)oc2cc(O)c(O)c(O)c12` [BAICALEIN], the half-life at 2 µM in [5] was > 2 h. In addition, the IC50 in data set [1] was determined as 11.8 µM. For the same compound, in [6], the solubility kinetic at 24 h, 250 µM was determined as 12 µM (≈ 3.24 µg/mL). For the same compound, the half-life at 4.6 µM in data set [7] turned out to be 0.683 h. As to `COc1cccc2oc(-c3ccccc3C)cc(=O)c12`, in data set [1], the IC50 is > 100 µM. `O=c1cc(-c2ccc(O)c(O)c2)oc2cc(F)cc(O)c12`: the half-life at 2 µM in [5] was > 2 h. Further, in [1], the IC50 amounted to 13.8 µM. Besides, the solubility kinetic at 24 h, 250 µM in [6] was < 1 µM. For the same compound, the half-life at 4.6 µM in data set [7] is > 1 h. Take `O=c1cc(/C=C/c2ccc(O)c(O)c2)oc2cccc(O)c12`: in data set [1], the IC50 is > 100 µM.

With `O=c1cc(-c2ccc(O)c(O)c2)oc2cc(O)cc(O)c12` [LUTEOLIN], the half-life at 2 µM in data set [5] was > 2 h. In data set [1], the IC50 stood at 12.7 µM. Moreover, in data set [6], the solubility kinetic at 24 h, 250 µM was determined as 21 µM (≈ 6.01 µg/mL). The half-life at 4.6 µM in data set [7] was > 1 h. In addition, the inhibition in [2] worked out at 49.9%; in data set [3], 95%. Consider `O=c1c(O)c(-c2ccc(O)cc2)oc2cc(O)cc(O)c12` [KAEMPFEROL], for which the IC50 in data set [1] amounted to 12.7 µM.

As to `CCCc1c(-c2ccc(O)c(O)c2)oc2cc(O)cc(O)c2c1=O`, the IC50 in data set [1] came out at 87.1 µM. The same measure, in the same setting: next, `CCCCOc1c(-c2ccc(O)c(O)c2)oc2cc(O)cc(O)c2c1=O`: 62.4 µM.

Turning to `COc1cccc2oc(-c3ccccc3F)cc(=O)c12`, the IC50 in data set [1] is > 100 µM.

For `COc1c(-c2ccc(O)cc2)oc2cc(O)cc(O)c2c1=O` [ISOKAEMPFERIDE], the 50% inhibitory concentration (IC50) in data set [1] was 16.1 µM. For `O=c1cc(CCc2ccc(O)c(O)c2)oc2cccc(O)c12`, the IC50 in data set [1] is > 100 µM. With `O=C1NC(=S)NC(=O)C1=Cc1cn(C(=O)c2ccc3ccccc3c2)c2ccc(Cl)cc12`, the IC50 in data set [8] was determined as 16 µM. On to `O=c1cc(-c2cccc(O)c2)oc2cc(O)cc(O)c12`, for which the half-life at 2 µM in data set [5] is > 2 h. Also, the IC50 in data set [1] was 5 µM. The solubility kinetic at 24 h, 250 µM in data set [6] was 6 µM (≈ 1.62 µg/mL). For the same compound, the half-life at 4.6 µM in [7] came out at 0.183 h. Take `O=c1c(-c2ccc(O)cc2)coc2cc(O)cc(O)c12` [GENISTEIN]: the IC50 in data set [1] is 92.4 µM. Turning to `COc1ccc(-c2cc(=O)c3c(OC)c(OC)c(OC)cc3o2)cc1OC` [SINENSETIN], the IC50 in data set [1] was > 100 µM.

Regarding `O=C1NC(=S)NC(=O)C1=Cc1cn(Cc2ccc3ccccc3c2)c2ccc(Cl)cc12`, the IC50 in data set [9] is 8 µM. Turning to `CCOc1c(-c2ccc(O)c(O)c2)oc2cc(O)cc(O)c2c1=O`, the IC50 in data set [1] came to 33.5 µM. As to `O=C(Nc1ccc(O)c(O)c1)c1cc(=O)c2c(O)cccc2o1`, the IC50 in data set [1] amounted to 26.5 µM. `O=c1cc(-c2ccc(O)cc2)oc2cc(O)cc(O)c12` [APIGENIN]: the half-life at 2 µM in [5] was > 2 h. Moreover, the IC50 in data set [1] turned out to be 22.2 µM. The solubility kinetic at 24 h, 250 µM in [6] is 13 µM (≈ 3.51 µg/mL). In addition, the half-life at 4.6 µM in [7] amounted to 0.133 h. As to `O=c1cc(-c2ccc3c(c2)OC(F)(F)O3)oc2cc(O)cc(O)c12`, the IC50 in [1] is > 100 µM. For `COc1cc(O)cc2oc(-c3ccc(O)c(O)c3)cc(=O)c12`, the half-life at 2 µM in data set [5] is > 2 h. Also, the IC50 in data set [1] was determined as 10.2 µM. In addition, in [6], the solubility kinetic at 24 h, 250 µM was 87 µM (≈ 26.1 µg/mL). Further, the half-life at 4.6 µM in data set [7] is > 1 h. As to `O=c1cc(Cc2ccc(O)c(O)c2)oc2cccc(O)c12`, the IC50 in data set [1] was > 100 µM. As to `COc1cccc2oc(-c3ccccc3C(F)(F)F)cc(=O)c12`, the IC50 in [1] was > 100 µM. Turning to `Cc1c(-c2ccc(O)c(O)c2)oc2cc(O)cc(O)c2c1=O`, in data set [1], the IC50 came to 84.6 µM. Take `O=c1c(OCCO)c(-c2ccc(O)c(O)c2)oc2cc(O)cc(O)c12`: the IC50 in data set [1] came out at 87.5 µM.

Broadly, the IC50 is the point on the concentration scale where inhibition reaches its midpoint. What is called inhibition is the relative decrease from the control value, in per cent. Usually half-life stands for how long it takes for the measured level to halve.
